Values quoted from earlier work as cited in US20140349947A1, “HAIR GROWTH AGENT (EMBODIMENTS) AND METHOD FOR HAIR REGROWTH” (priority 2012, published 2014).

Tests used:
[1] = not given; remark: listed apart in the source
[2] = in ointments and gels, dose up to 1,000 IU/g

Row | Duration of the effects of heparin in tissues (after a single skin application) | Part of preparation deposited in the upper layers of skin (after application of ointment or gel) | Effect on bleeding time [2] | Systemic effect [2] | Bioavailability [1] | Substance
1 | up to 8 hours | up to 50% | does not affect the bleeding time | does not have a systemic effect | low | heparin sodium [Unfractionated heparin]
2 | – | – | – | – | high | Low molecular weight heparin
